Measured values published in ChEMBL document CHEMBL5465560, “Selectivity Literature for EUbOPEN Chemogenomic Library” (2024).

Tests used:
[1] = molecular target: Vascular endothelial growth factor receptor 2 (Homo sapiens, UniProt P35968); conditions: at 10 µM
[2] = molecular target: T1, Serine/threonine-protein kinase D3 (Homo sapiens) (UniProt O94806); test: Selectivity interaction (Kinase screening (Nanosyn)) EUB0000604a PRKD3
T1 sequence (whole entry): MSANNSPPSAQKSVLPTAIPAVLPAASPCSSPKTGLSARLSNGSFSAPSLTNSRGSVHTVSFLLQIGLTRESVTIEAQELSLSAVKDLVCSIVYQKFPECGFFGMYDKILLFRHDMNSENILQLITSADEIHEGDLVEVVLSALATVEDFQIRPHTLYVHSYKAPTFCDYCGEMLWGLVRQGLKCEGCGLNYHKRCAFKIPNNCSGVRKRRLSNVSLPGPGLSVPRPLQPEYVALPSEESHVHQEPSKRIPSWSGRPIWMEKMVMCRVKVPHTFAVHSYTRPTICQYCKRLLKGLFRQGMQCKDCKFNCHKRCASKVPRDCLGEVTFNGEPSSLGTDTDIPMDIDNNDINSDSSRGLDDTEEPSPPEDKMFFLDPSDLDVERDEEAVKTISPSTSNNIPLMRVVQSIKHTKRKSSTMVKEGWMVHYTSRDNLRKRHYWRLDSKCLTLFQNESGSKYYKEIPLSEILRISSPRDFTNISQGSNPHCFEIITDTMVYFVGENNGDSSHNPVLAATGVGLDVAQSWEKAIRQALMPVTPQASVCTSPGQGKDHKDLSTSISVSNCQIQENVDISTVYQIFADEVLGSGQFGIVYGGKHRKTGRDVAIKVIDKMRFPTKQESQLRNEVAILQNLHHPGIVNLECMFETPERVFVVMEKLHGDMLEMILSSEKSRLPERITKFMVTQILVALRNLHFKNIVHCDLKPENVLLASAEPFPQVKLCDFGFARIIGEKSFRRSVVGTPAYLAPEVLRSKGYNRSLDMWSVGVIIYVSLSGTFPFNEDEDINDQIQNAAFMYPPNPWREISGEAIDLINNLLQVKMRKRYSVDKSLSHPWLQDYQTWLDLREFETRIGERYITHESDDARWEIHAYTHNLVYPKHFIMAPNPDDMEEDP

[3] = molecular target: T2, Serine/threonine-protein kinase TBK1 (Homo sapiens) (UniProt Q9UHD2); test: Selectivity interaction (KinomeScan (DiscoverX)) EUB0001619a TBK1; conditions: at 1 µM
T2 sequence (whole entry): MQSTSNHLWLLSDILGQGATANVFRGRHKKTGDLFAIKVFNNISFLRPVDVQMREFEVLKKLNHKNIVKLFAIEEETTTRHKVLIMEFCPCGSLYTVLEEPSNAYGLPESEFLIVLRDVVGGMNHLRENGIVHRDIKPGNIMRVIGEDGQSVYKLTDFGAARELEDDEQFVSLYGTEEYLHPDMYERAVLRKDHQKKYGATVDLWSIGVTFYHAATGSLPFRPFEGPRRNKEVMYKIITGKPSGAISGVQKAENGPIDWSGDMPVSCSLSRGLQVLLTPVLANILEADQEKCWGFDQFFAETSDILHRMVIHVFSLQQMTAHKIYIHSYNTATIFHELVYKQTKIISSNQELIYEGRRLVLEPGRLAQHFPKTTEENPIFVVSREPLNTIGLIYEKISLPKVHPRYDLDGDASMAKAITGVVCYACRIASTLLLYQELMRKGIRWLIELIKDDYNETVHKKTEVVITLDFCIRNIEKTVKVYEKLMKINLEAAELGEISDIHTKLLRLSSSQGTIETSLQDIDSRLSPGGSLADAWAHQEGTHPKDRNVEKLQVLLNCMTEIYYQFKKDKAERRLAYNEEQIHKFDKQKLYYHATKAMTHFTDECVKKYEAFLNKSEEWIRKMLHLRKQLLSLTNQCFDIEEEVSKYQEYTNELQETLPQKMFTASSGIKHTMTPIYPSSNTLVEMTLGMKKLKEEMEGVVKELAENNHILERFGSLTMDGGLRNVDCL

[4] = molecular target: T3, Cyclin-G-associated kinase (Homo sapiens) (UniProt O14976); test: Selectivity interaction (Kinase panel (DSF assay)) EUB0001558a GAK
T3 sequence (whole entry): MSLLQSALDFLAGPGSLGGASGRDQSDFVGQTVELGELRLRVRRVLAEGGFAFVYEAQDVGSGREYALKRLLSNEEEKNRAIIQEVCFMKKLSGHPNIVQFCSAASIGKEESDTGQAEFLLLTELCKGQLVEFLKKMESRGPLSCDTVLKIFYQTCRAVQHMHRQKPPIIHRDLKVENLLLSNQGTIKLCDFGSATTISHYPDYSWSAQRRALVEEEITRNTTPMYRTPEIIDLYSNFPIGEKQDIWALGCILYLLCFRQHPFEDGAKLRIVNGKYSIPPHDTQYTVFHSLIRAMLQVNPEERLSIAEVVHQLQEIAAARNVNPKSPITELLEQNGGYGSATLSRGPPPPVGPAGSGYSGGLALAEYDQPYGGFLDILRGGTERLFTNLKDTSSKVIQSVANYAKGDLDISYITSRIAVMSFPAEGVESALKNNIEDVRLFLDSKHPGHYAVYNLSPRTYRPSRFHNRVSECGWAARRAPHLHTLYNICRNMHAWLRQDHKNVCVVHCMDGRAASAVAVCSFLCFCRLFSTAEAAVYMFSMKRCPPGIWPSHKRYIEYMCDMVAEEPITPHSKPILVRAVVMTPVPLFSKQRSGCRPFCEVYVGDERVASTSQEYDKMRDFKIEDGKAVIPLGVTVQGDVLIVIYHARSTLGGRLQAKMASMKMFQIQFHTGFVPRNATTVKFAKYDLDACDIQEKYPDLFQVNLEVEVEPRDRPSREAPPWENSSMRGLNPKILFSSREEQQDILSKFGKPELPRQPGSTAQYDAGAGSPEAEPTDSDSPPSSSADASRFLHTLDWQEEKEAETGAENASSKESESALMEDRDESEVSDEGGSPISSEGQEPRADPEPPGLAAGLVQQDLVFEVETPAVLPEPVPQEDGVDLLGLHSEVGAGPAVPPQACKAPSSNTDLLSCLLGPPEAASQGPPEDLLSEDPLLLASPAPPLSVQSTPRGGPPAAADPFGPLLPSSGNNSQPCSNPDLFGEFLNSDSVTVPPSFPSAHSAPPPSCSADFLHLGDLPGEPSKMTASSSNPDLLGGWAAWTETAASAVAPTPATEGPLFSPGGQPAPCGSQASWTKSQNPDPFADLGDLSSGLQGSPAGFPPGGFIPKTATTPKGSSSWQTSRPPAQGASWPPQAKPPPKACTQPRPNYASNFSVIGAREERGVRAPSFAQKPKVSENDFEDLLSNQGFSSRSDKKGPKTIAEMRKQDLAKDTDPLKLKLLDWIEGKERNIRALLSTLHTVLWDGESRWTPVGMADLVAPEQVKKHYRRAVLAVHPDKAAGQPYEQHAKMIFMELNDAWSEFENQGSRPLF

[5] = molecular target: T2, Serine/threonine-protein kinase TBK1 (Homo sapiens); test: Selectivity interaction (ActivX KiNativ screen (kinase selectivity in THP-1 cell lysates)) EUB0000639a TBK1; assay type: subcellular; conditions: lysate, at 0.2 µM

Sequence of Vascular endothelial growth factor receptor 2 (P35968 whole entry): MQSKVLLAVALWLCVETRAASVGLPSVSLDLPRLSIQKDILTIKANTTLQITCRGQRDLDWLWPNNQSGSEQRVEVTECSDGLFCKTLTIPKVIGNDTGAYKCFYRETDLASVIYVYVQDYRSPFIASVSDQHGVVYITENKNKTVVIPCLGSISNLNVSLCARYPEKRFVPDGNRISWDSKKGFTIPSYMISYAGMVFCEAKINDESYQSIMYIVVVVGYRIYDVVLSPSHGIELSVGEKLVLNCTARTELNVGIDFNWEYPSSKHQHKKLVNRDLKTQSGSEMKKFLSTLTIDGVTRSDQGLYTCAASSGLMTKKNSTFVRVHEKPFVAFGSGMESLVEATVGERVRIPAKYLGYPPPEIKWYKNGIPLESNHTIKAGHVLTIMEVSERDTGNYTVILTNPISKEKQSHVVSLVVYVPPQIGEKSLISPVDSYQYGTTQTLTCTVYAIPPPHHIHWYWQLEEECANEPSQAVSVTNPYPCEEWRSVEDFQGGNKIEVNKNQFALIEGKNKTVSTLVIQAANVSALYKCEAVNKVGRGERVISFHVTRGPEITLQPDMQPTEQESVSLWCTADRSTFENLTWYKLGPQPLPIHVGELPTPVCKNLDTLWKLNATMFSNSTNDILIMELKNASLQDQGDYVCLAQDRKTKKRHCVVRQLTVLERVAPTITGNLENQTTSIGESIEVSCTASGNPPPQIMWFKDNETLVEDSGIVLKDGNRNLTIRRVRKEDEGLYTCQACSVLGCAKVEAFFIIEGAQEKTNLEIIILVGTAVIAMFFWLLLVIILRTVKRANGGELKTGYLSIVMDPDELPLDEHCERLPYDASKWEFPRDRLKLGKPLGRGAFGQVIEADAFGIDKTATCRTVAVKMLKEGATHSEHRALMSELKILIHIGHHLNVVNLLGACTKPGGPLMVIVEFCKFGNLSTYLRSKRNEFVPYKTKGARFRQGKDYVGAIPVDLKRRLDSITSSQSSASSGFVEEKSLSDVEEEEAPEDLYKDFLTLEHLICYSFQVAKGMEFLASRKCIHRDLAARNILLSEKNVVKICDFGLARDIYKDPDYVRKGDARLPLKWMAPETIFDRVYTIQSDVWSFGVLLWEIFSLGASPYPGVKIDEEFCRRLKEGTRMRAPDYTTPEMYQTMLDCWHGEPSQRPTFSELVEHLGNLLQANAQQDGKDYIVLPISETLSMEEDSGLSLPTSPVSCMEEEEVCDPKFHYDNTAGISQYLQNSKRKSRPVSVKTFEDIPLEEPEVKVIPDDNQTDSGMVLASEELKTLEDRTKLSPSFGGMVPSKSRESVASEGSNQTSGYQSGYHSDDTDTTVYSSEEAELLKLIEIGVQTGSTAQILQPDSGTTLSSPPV

## Cc1cc([C@@H](C)Nc2ccccc2C(=O)O)c2nc(N3CCOCC3)cc(=O)n2c1 [AZD-6482]
[1]
  % of control: 100%

## Cc1cnc(Nc2ccc(F)cc2Cl)nc1-c1c[nH]c(C(=O)N[C@H](CO)c2cccc(Cl)c2)c1
[2]
  % of inhibition: 21%

## N#Cc1cccc(-c2c[nH]c3ncnc(N4CCOCC4)c23)c1
[3]
  % of control: 100%

## CC(C)(O)[C@H](F)CN1Cc2cc(NC(=O)c3cnn4cccnc34)c(N3CCOCC3)cc2C1=O
[4]
  dTM: 2.3 K

## CC[C@@H]1[C@H](F)C(=O)N[C@@H]1COc1nccc2cc(C(N)=O)c(OC)cc12 [ZIMLOVISERTIB]
[5]
  % of inhibition: -31.6%
